The target in assay [1] is T1, CCK-A (Rattus norvegicus, UniProt P30551).
T1 sequence (P30551 1-444): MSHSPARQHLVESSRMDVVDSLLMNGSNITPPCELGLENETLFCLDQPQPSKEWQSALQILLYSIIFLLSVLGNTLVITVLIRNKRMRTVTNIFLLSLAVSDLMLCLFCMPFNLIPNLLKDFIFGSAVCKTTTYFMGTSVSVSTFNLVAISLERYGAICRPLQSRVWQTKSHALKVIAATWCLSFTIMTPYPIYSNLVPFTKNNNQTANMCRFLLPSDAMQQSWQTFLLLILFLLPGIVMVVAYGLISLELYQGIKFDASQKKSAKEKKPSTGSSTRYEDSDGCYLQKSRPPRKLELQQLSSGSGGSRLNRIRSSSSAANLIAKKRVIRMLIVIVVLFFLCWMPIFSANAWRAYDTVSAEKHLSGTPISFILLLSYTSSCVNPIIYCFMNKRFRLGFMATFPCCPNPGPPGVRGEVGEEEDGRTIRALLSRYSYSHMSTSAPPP
Kind of assay: biochemical. Format: binding. The protocol: The CCK-A and CCK-B antagonising activity of the compounds described herein was evaluated using the assays described in published European patent application no. 0514133. The method essentially involves determining the concentration of the test compound required to displace 50% of the specific ^125 I-CCK from rat pancreas (CCK-A) or guinea pig brain (CCK-B).

The target of assay [2] is T2, CCK-B (Cavia porcellus, UniProt H0VZC5).
T2 construct: guinea pig brain (CCK-B); from tissue; host or cells: guinea pig brain
T2 sequence (H0VZC5 1-426): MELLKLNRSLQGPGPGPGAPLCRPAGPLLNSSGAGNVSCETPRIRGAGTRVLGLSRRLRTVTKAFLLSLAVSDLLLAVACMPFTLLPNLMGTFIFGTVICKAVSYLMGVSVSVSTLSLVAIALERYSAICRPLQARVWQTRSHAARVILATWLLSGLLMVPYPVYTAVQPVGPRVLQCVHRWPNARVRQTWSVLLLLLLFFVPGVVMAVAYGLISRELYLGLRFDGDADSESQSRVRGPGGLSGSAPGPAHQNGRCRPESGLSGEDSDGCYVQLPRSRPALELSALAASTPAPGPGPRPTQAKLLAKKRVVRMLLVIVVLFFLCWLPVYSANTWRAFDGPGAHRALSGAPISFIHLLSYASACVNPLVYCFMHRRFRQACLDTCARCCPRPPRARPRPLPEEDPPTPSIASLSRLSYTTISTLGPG
The assay can be described thus: displacement of specific 125I-CCK from guinea pig brain (CCK-B receptor binding). On the procedure:
The CCK-A and CCK-B antagonising activity of the compounds described herein was evaluated using the assays described in published European patent application no. 0514133. The method essentially involves determining the concentration of the test compound required to displace 50% of the specific ^125 I-CCK from rat pancreas (CCK-A) or guinea pig brain (CCK-B). The data in Table 1 were obtained for compounds of the Examples.

The mark [3] stands for this setting: CCK RECEPTOR BINDING RESULTS IC50 125I-CCK Pancreas, rat pancreas (CCK-A), 125I-CCK.
Where [4] appears, read: CCK RECEPTOR BINDING RESULTS IC50 125I-CCK Brain.
Setting [5] is: rat pancreas (CCK-A), 125I-CCK, read-out: CCK RECEPTOR BINDING RESULTS IC50 125I-CCK Pancreas.
[6] abbreviates: read-out: CCK RECEPTOR BINDING RESULTS IC50 125I-CCK Brain.
The mark [7] stands for this setting: read-out: CCK RECEPTOR BINDING RESULTS IC50 125I-CCK Pancreas.

Counter-ions that a name gives are not always drawn. Like-named read-outs stand apart in the source and are kept apart here.

In patent publication US5618812A, “Benzodiazepine derivatives” (Merck Sharp & Dohme, Ltd., priority 1992, dated 1997) one finds IC50 data, which are given here for 17 compounds.

A word on the IC50: it is the concentration at which inhibition is half-maximal. Turning to `Cc1cc(NC(=O)NC2N=C(N3CC4CCC(CC4)C3)c3ccccc3N(C)C2=O)ccc1F` (single isomer, unassigned; (+)) [Example 54, (+)-N-[5-(3-Azabicyclo[3,2,2]nonan-3-yl)-2,3-dihydro-1-methyl-2-oxo-1H-1,4-benzodiazepin-3-yl]-N'-[4-fluoro-3-methylphenyl]urea Hydrochloride], the IC50 stood at 8.4 nM in assay [1] (setting [3]) and 68 nM in assay [2] (setting [4]).

With `CN1C(=O)C(NC(=O)Nc2cccc(C(F)(F)F)c2)N=C(N2CC3CCC(CC3)C2)c2ccccc21` (single isomer, unassigned; (+)) [Example 56, (+)-N-[5-(3-Azabicyclo[3,2,2]nonan-3-yl)-2,3-dihydro-1-methyl-2-oxo-1H-1,4-benzodiazepin-3-yl]-N'-[3-trifluoromethylphenyl]urea Hydrochloride], the 50% inhibitory concentration (IC50) in assay [1] (setting [5]) was 62 nM; in assay [2] (setting [6]), 47 nM.

For the compound `Cc1cccc(NC(=O)NC2N=C(N3C[C@H]4CCCC[C@H]4C3)c3ccccc3N(C)C2=O)c1` (single isomer, unassigned; (+)) [Example 59, (+)-N-[2,3-Dihydro-1-methyl-5-(cis-octahydroisoindol-2-yl)-2-oxo-1H-1,4-benzodiazepin-3-yl]N'[-3-methylphenyl]urea hydrochloride], the IC50 in assay [1] (setting [7]) amounted to 9.7 nM; in assay [2] (setting [6]), 144 nM.

As for `CCCN1C(=O)C(NC(=O)Nc2cccc(C)c2)N=C(N(C)C2CCCCC2)c2ccccc21` (single isomer, unassigned; (+)) [Example 62, (+) 5-(N-Cyclohexyl-N-methylamino)-2,3-dihydro-2-oxo-1-propyl-1H-1,4-benzodiazepin-3-y1-N'-[3-methylphenyl]urea], the IC50 in assay [1] (setting [5]) amounted to 114 nM; in assay [2] (setting [6]), 35.2 nM.

Take `Cc1cccc(NC(=O)NC2N=C(N(C)C3CCCCC3)c3ccccc3N(C)C2=O)c1` (single isomer, unassigned; (+)) [Example 65, (+)5-(N-Cyclohexyl-N-methylamino)-2,3-dihydro-2-oxo-1-methyl-1H-1,4-benzodiazepin-3-yl-N'[3-methylphenyl]urea. Hydrochloride]: the IC50 came to 138 nM in assay [1] (setting [5]) and 13.7 nM in assay [2] (setting [6]).

Turning to `Cc1cccc(NC(=O)NC2N=C(N(C)C3CCCCCC3)c3ccccc3N(C)C2=O)c1` (single isomer, unassigned; (+)) [Example 68, (+)-5-(N-Cycloheptyl-N-methylamino)-2,3-dihydro-1-methyl-2-oxo-1H-1,4-benzodiazepin-3-yl-N'-[3-methylphenyl]urea. Hydrochloride], the IC50 in assay [1] (setting [5]) was 53.4 nM; in assay [2] (setting [6]), 26.6 nM.

As for `CN1C(=O)C(NC(=O)c2cc3ccccc3[nH]2)N=C(N2CC3CCC(CC3)C2)c2ccccc21` (single isomer, unassigned; (+)) [Example 89, (+)-N-(5-(3-Azabicyclo[3,2,2]nonan-3-yl)-2,3-ihydro-1-methyl-2-oxo-1H-1,4-benzodiazepin-3-yl)-1H-indole-2-carboxamide dihydrochloride], the IC50 is 0.26 nM in assay [1] (setting [5]) and 653 nM in assay [2] (setting [6]).

Take `CC1CCN(C2=NC(NC(=O)Nc3ccc4c(c3)CCC4)C(=O)N(C)c3ccccc32)CC1` (single isomer, unassigned; (-)) [Example 12, (-)-N-[2,3,Dihydro-1-methyl-5-(4-methylpiperidin-1-yl)-2-oxo-1H-1,4-benzodiazepin-3-yl]N'-[indan-5-yl]urea hydrochloride]: the IC50 in assay [1] (setting [5]) amounted to 2180 nM; in assay [2] (setting [6]), 0.28 nM.

For the compound `Cc1cccc(NC(=O)NC2N=C(N3CCCC(C)(C)C3)c3ccccc3N(C)C2=O)c1` (single isomer, unassigned; (-)) [Example 26, (-)-N-[2,3-dihydro-(3,3-dimethylpiperidin-1-yl)-1-methyl-2-oxo-1H-1,4-benzodiazepin-3-yl]N'-[3-methylphenyl]urea], the IC50 in assay [1] (setting [5]) is > 3000 nM; in assay [2] (setting [6]) it was 0.27 nM.

For `CN1C(=O)C(NC(=O)Nc2cccc(F)c2)N=C(N2CC3CCC(CC3)C2)c2ccccc21` (single isomer, unassigned; (-)) [Example 36, (-)-N-[5-(3-Azabicyclo[3,2,2]nonan-3-yl)-2,3-dihydro-1-methyl-2-oxo-1H-1,4-benzodiazepin-3-yl]-N'-[3-fluorophenyl]urea Hydrochloride], the IC50 in assay [1] (setting [3]) was found to be 1400 nM; in assay [2] (setting [4]), 0.32 nM.

With `Cc1cccc(NC(=O)NC2N=C(N3CC4CCC(C4)C3)c3ccccc3N(C)C2=O)c1` (single isomer, unassigned; (-)) [Example 39, (-)-N-[5-(3-Azabicyclo[3,2,1]octan-3-yl)-2,3-dihydro-1-methyl-2-oxo-1H-1,4-benzodiazepin-3-yl]-N'-[3-methylphenyl]urea Hydrochloride], the IC50 in assay [1] (setting [7]) amounted to 4010 nM; in assay [2] (setting [6]) it was 0.17 nM.

Regarding `CN1C(=O)C(NC(=O)Nc2ccc3c(c2)CCC3)N=C(N2CC3CCC(CC3)C2)c2ccccc21` (single isomer, unassigned; (-)) [Example 41, (-)-N-[5-(3-Azabicyclo[3,2,2]nonan-3-yl)-2,3-dihydro-1-methyl-2-oxo-1H-1,4-benzodiazepin-3-yl]-N'-[5-indanyl]urea], the IC50 in assay [1] (setting [5]) was > 3000 nM; in assay [2] (setting [4]), 0.37 nM.

On to `Cc1ccc(NC(=O)NC2N=C(N3CC4CCC(CC4)C3)c3ccccc3N(C)C2=O)cc1F` (single isomer, unassigned; (-)) [Example 45, (-)-N-[5-(3-Azabicyclo[3,2,2]nonan-3-yl)-2,3-dihydro-1-methyl-2-oxo-1H-1,4-benzodiazepin-3-yl]-N'-[3-fluoro-4-methylphenyl]urea Hydrochloride], for which the half-inhibitory concentration (IC50) is > 3000 nM in assay [1] (setting [3]) and 0.42 nM in assay [2] (setting [4]).

For the compound `CN1C(=O)C(NC(=O)Nc2cccc(I)c2)N=C(N2CC3CCC(CC3)C2)c2ccccc21` (single isomer, unassigned; (-)) [Example 48, (-)-N-[5-(3-Azabicyclo[3,2,2]nonan-3-yl)-2,3-dihydro-1-methyl-2-oxo-1H-1,4-benzodiazepin-3-yl]-N'-[3-iodophenyl]urea], the values for the IC50 in assay [1] (setting [5]) and in assay [2] (setting [4]) were 2420 nM and 1.11 nM, respectively.

On to `Cc1cc(NC(=O)NC2N=C(N3CC4CCC(CC4)C3)c3ccccc3N(C)C2=O)ccc1F` (single isomer, unassigned; (-)) [Example 53, (-)-N-[5-(3-Azabicyclo[3,2,2]nonan-3-yl)-2,3-dihydro-1-methyl-2-oxo-1H-1,4-benzodiazepin-3-yl]-N'-[4-fluoro-3-methylphenyl]urea Hydrochloride], for which the values for the IC50 in assay [1] (setting [3]) and in assay [2] (setting [4]) were 3760 nM and 0.18 nM, respectively.

As for `CN1C(=O)C(NC(=O)Nc2cccc(C(F)(F)F)c2)N=C(N2CC3CCC(CC3)C2)c2ccccc21` (single isomer, unassigned; (-)) [Example 55, (-)-N-[5-(3-Azabicyclo[3,2,2]nonan-3-yl)-2,3-dihydro-1-methyl]-2-oxo-1H-1,4-benzodiazepin-3-yl]-N'-[3-trifluoromethylphenyl]urea Hydrochloride], the IC50 is > 3000 nM in assay [1] (setting [5]) and 0.73 nM in assay [2] (setting [4]).

Turning to `Cc1cccc(NC(=O)NC2N=C(N3C[C@H]4CCCC[C@H]4C3)c3ccccc3N(C)C2=O)c1` (single isomer, unassigned; (-)) [Example 58, (-)-N-[2,3-Dihydro-1-methyl-5-(cis-octahydroisoindol-2-yl)-2-oxo-1H-1,4-benzodiazepin-3-yl]-N'-[3-methylphenyl]urea hydrochloride], the IC50 stood at 2260 nM in assay [1] (setting [7]) and 2 nM in assay [2] (setting [6]).
